One assay addresses T1, MAO A (Rattus norvegicus, UniProt P21396).
T1 sequence (P21396 1-526): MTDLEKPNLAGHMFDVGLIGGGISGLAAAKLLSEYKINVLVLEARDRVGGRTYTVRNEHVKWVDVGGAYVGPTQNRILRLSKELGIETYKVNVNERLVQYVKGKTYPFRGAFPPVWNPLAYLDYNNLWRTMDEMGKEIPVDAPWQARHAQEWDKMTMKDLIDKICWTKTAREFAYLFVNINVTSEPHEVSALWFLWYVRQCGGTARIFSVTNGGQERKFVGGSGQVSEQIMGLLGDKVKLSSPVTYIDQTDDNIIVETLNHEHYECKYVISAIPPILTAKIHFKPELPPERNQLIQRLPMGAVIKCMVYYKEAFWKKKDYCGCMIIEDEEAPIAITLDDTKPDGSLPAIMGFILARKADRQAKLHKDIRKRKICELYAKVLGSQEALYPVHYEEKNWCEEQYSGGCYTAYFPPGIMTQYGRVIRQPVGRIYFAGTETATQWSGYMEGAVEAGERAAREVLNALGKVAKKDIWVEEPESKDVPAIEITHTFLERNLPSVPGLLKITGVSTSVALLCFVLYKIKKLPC
Nature of the assay: Monoamine oxidase A. The format is biochemical. As to conditions: for inhibition at 100 µM: read-out: MAO A % inhibition; for dual inhibition on MAO A and MAO B: both isoforms; for dual inhibition on MAO A and MAO B / selective inhibition toward MAO A: in words; for selective inhibition toward MAO A: MAO A versus MAO B.

The target of another assay is T2, MAO B (Rattus norvegicus, UniProt P19643).
T2 sequence (P19643 1-520): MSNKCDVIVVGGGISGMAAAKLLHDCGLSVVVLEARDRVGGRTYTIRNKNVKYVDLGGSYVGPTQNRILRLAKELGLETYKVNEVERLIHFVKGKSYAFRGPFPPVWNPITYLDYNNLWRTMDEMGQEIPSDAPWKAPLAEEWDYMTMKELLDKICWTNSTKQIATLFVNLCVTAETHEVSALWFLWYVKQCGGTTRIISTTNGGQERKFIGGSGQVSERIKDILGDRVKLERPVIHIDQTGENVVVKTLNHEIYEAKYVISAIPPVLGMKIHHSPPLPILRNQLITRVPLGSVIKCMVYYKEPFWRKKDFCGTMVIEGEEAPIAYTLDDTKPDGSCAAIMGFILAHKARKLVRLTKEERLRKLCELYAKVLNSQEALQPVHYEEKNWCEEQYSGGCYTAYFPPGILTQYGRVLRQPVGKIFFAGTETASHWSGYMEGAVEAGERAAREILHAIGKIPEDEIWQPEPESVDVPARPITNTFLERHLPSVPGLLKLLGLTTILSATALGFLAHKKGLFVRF
The assay can be described thus: Monoamine oxidase B. It counts as biochemical. As to conditions: for inhibition at 100 µM: read-out: MAO B % inhibition; for selective inhibition toward MAO B: MAO B versus MAO A, in words.

These results are taken from publication PMC9828044 (RSC Advances, 2023).

What is called inhibition is how much of the control response was suppressed.

In the case of `CN1c2ccccc2C(=NN=Cc2cc3ccccc3nc2Cl)CS1(=O)=O` [7a, 4-(((2-Chloroquinolin-3-yl)methylene)hydrazono)-1-methyl-3,4-dihydro-1H-benzo[c][1,2]thiazine 2,2-dioxide], the inhibition at 100 µM is 38.8% at MAO A and 43.6% on MAO B. Turning to `Cc1ccc2nc(Cl)c(C=NN=C3CS(=O)(=O)N(C)c4ccccc43)cc2c1` [7b, 4-(((2-Chloro-6-methylquinolin-3-yl)methylene)hydrazono)-1-methyl-3,4-dihydro-1H-benzo[c][1,2]thiazine 2,2-dioxide], on MAO A, the “dual inhibition on MAO A and MAO B” value is “dual inhibition on MAO A as well as MAO B”. Regarding `COc1ccc2nc(Cl)c(C=NN=C3CS(=O)(=O)N(C)c4ccccc43)cc2c1` [7c, 4-(((2-Chloro-6-methoxyquinolin-3-yl)methylene)hydrazono)-1-methyl-3,4-dihydro-1H-benzo[c][1,2]thiazine 2,2-dioxide], the “selective inhibition toward MAO A” value on MAO A is on record as “significant selective inhibition toward MAO A”. Besides, at MAO B, the inhibition at 100 µM was determined as 35.8%. As for `Cc1ccc2cc(C=NN=C3CS(=O)(=O)N(C)c4ccccc43)c(Cl)nc2c1` [7d, 4-(((2-Chloro-7-methylquinolin-3-yl)methylene)hydrazono)-1-methyl-3,4-dihydro-1H-benzo[c][1,2]thiazine 2,2-dioxide], the “dual inhibition on MAO A and MAO B” value at MAO A was “dual inhibition on MAO A as well as MAO B”. Still for that read-out and setting: then `COc1ccc2cc(C=NN=C3CS(=O)(=O)N(C)c4ccccc43)c(Cl)nc2c1` [7e, 4-(((2-Chloro-7-methoxyquinolin-3-yl)methylene)hydrazono)-1-methyl-3,4-dihydro-1H-benzo[c][1,2]thiazine 2,2-dioxide], with “dual inhibition on MAO A as well as MAO B”.

Consider `CN1c2ccccc2C(=NN=Cc2cc3ccc(Cl)cc3nc2Cl)CS1(=O)=O` [7f, 4-(((2,7-Dichloroquinolin-3-yl)methylene)hydrazono)-1-methyl-3,4-dihydro-1H-benzo[c][1,2]thiazine 2,2-dioxide], for which, at MAO A, the “dual inhibition on MAO A and MAO B” value was “dual inhibition on MAO A as well as MAO B”; the inhibition at 100 µM was 2.03 ± 0.91%. Turning to `CC(=NN=C1CS(=O)(=O)N(C)c2ccccc21)c1cccs1` [9a, 1-Methyl-4-((1-(thiophen-2-yl)ethylidene)hydrazono)-3,4-dihydro-1H-benzo[c][1,2]thiazine 2,2-dioxide], on MAO A, the inhibition at 100 µM worked out at 2.09 ± 0.89%.

For the compound `CC(=NN=C1CS(=O)(=O)N(C)c2ccccc21)c1sccc1C` [9b, 1-Methyl-4-((1-(3-methylthiophen-2-yl)ethylidene)hydrazono)-3,4-dihydro-1H-benzo[c][1,2]thiazine 2,2-dioxide], the inhibition at 100 µM on MAO A amounted to 38.5%. Take `CC(=NN=C1CS(=O)(=O)N(C)c2ccccc21)c1cc(C)cs1` [9c, 1-Methyl-4-((1-(4-methylthiophen-2-yl)ethylidene)hydrazono)-3,4-dihydro-1H-benzo[c][1,2]thiazine 2,2-dioxide]: the inhibition at 100 µM at MAO A came out at 39.1%.

With `CC(=NN=C1CS(=O)(=O)N(C)c2ccccc21)c1ccc(C)s1` [9d, 1-Methyl-4-((1-(5-methylthiophen-2-yl)ethylidene)hydrazono)-3,4-dihydro-1H-benzo[c][1,2]thiazine 2,2-dioxide], the “selective inhibition toward MAO A” value on MAO A was “significant selective inhibition toward MAO A”. Moreover, the inhibition at 100 µM on MAO B came to 31.1%. For `CC(=NN=C1CS(=O)(=O)N(C)c2ccccc21)c1sccc1Cl` [9e, 4-((1-(3-Chlorothiophen-2-yl)ethylidene)hydrazono)-1-methyl-3,4-dihydro-1H-benzo[c][1,2]thiazine 2,2-dioxide], at MAO B, the inhibition at 100 µM amounted to 41.9%. With `CC(=NN=C1CS(=O)(=O)N(C)c2ccccc21)c1sccc1Br` [9f, 4-((1-(3-Bromothiophen-2-yl)ethylidene)hydrazono)-1-methyl-3,4-dihydro-1H-benzo[c][1,2]thiazine 2,2-dioxide], the inhibition at 100 µM at MAO A was 41.6%. For the same compound, the “selective inhibition toward MAO B” value at MAO B is given as “selective inhibition toward the MAO B enzyme”. Regarding `CC(=NN=C1CS(=O)(=O)N(C)c2ccccc21)c1ccc(Cl)s1` [9g, 4-((1-(5-Chlorothiophen-2-yl)ethylidene)hydrazono)-1-methyl-3,4-dihydro-1H-benzo[c][1,2]thiazine 2,2-dioxide], the “dual inhibition on MAO A and MAO B” value at MAO A is recorded as “dual inhibition on MAO A as well as MAO B”. Regarding `CC(=NN=C1CS(=O)(=O)N(C)c2ccccc21)c1ccc(Br)s1` [9h, 4-((1-(5-Bromothiophen-2-yl)ethylidene)hydrazono)-1-methyl-3,4-dihydro-1H-benzo[c][1,2]thiazine 2,2-dioxide], the inhibition at 100 µM on MAO A amounted to 28.4%. For the same compound, the “selective inhibition toward MAO B” value at MAO B is on record as “selective inhibition toward the MAO B enzyme”.

On to `CC(=NN=C1CS(=O)(=O)N(C)c2ccccc21)c1ccc([N+](=O)[O-])s1` [9i, 1-Methyl-4-((1-(5-nitrothiophen-2-yl)ethylidene)hydrazono)-3,4-dihydro-1H-benzo[c][1,2]thiazine 2,2-dioxide], for which the inhibition at 100 µM on MAO A stood at 39.8%. Besides, the “selective inhibition toward MAO B” value on MAO B is on record as “selective inhibition toward the MAO B enzyme”. In the case of `CC(=NN=C1CS(=O)(=O)N(C)c2ccccc21)c1cc(C)sc1C` [9j, 4-((1-(2,5-Dimethylthiophen-3-yl)ethylidene)hydrazono)-1-methyl-3,4-dihydro-1H-benzo[c][1,2]thiazine 2,2-dioxide], the inhibition at 100 µM at MAO A was 26.3%. Also, at MAO B, the “selective inhibition toward MAO B” value is listed as “selective inhibition toward the MAO B enzyme”. `CC(=NN=C1CS(=O)(=O)N(C)c2ccccc21)c1cc(Cl)sc1Cl` [9k, 4-((1-(2,5-Dichlorothiophen-3-yl)ethylidene)hydrazono)-1-methyl-3,4-dihydro-1H-benzo[c][1,2]thiazine 2,2-dioxide]: at MAO A, the “dual inhibition on MAO A and MAO B” value was “dual inhibition on MAO A as well as MAO B”.
